Patent US9957265B2, “N-(2-cyano heterocyclyl) pyrazolo pyridones as janus kinase inhibitors” (Merck Sharp & Dohme Corp., priority 2013, dated 2018)
Read-outs that look alike come from different tables or passages of the source.

Key:
JAK1 = JAK1 (Homo sapiens (Human), UniProt P23458); test: Jak Biochemical HTRF Assay (JAK1); conditions: recombinant GST-tagged catalytic domain, [ATP] 31.8 μM, unit not given (compound concentrations tested given in nM)
Description: Jak Biochemical HTRF Assay Protocol
Subsequent reagent additions employed an Agilent Bravo.

JAK2 = JAK2 (Homo sapiens (Human), UniProt O60674); test: Jak Biochemical HTRF Assay (JAK2)
Description: The ability of compounds to inhibit the activity of JAK1, JAK2, JAK3, and TYK2 was measured using a recombinant purified GST-tagged catalytic domain for each enzyme (Invitrogen JAK1 #M4290, JAK2 #M4290, JAK3 #M4290, TYK2 #M4290) in an HTRF format biochemical assay. […] Subsequent reagent additions employed an Agilent Bravo. […] After equilibration, 2 μL of 10×ATP in 1× assay buffer was added to initiate the kinase reaction and the plates were shaken and then incubated at room temperature for 120 minutes. […] After normalization to untreated controls, the percent inhibition of the HTRF signal at each compound concentration was calculated. The plot of percent inhibition versus the log of compound concentration was fit with a 4-parameter dose response equation to calculate IC50 values.
Final reaction conditions were:

[1] = JAK2 IC50, recombinant GST-tagged catalytic domain, [ATP] 8.5 μM, unit not given (compound concentrations tested given in nM)
[2] = read-out: JAK2 IC50, recombinant GST-tagged catalytic domain, [ATP] 8.5 μM, unit not given (compound concentrations tested given in nM)

JAK2, sequence (O60674 849-1124): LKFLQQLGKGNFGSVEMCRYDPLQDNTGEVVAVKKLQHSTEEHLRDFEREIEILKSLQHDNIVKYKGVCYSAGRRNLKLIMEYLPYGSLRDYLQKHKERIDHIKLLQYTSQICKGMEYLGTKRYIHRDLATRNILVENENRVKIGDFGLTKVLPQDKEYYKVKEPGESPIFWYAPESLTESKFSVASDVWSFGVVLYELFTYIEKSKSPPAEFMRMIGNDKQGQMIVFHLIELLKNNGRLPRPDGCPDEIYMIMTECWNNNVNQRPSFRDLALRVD
JAK1, sequence (P23458 875-1153): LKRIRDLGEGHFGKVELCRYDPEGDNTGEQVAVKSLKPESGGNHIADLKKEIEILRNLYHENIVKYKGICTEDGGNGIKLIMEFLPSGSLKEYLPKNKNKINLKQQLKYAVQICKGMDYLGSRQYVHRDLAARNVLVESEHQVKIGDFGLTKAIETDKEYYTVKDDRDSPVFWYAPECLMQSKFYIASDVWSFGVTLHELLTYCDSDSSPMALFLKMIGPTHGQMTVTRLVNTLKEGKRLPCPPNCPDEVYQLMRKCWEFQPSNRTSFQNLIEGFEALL

Row | IC50 (JAK1) [nM] | IC50 (JAK2; [1]) [nM] | IC50 (JAK2; [2]) [nM] | Compound
1 | 1.64 | – | 7.44 | CS(=O)(=O)c1cc(Nc2nn(C3COCC[C@@H]3C#N)c3cc[nH]c(=O)c23)ccc1Cl (stereo partly drawn) [Example 3-1, (3R,4S)-3-(3-((4-chloro-3-(methylsulfonyl)phenyl)amino)-4-oxo-4,5-dihydro-1H-pyrazolo[4,3-t]pyridin-1-yl)tetrahydro-2H-pyran-4-carbonitrile]
2 | 0.05 | 0.05 | – | N#C[C@H]1CCOC[C@@H]1n1nc(Nc2ccc(C3(C(F)(F)F)CCCCN3)cc2)c2c(=O)[nH]ccc21 (single isomer, unassigned) [Example 2-8, (3R,4S)-3-[4-oxo-3-({4-[(2R or 2S)-2-(trifluoromethyl)piperidin-2-yl]phenyl}amino)-4,5-dihydro-1H-pyrazolo[4,3-c]pyridin-1-yl] tetrahydro-2H-pyran-4-carbonitrile]
3 | 0.89 | 13.7 | – | C[S+]([O-])c1cc(Nc2nn([C@H]3COCC[C@@H]3C#N)c3cc[nH]c(=O)c23)ccc1F (single isomer, unassigned) [Example 3-2, (3R,4S)-3-(3-((4-fluoro-3-((S or R)-methylsulfinyl)phenyl)amino)-4-oxo-4,5-dihydro-1H-pyrazolo[4,3-c]pyridin-1-yl)tetrahydro-2H-pyran-4-carbonitrile]
4 | 0.06 | 0.39 | – | CC(O)(c1ccc(Nc2nn([C@H]3COCC[C@@H]3C#N)c3cc[nH]c(=O)c23)cc1)C(F)(F)F (single isomer, unassigned) [Example 2-3, (3R,4S)-3-[4-oxo-3-({4-[(1R or 1S)-2,2,2-trifluoro-1-hydroxy-1-methylethyl]phenyl}amino)-4,5-dihydro-1H-pyrazolo[4,3-c]pyridin-1-yl]tetrahydro-2H-pyran-4-carbonitrile]

Further lines, the compound ahead of its results:

Row | Compound | IC50 (JAK1) [nM] | IC50 (JAK2; [1]) [nM] | IC50 (JAK2; [2]) [nM]
5 | CC(C)(C)S(=O)(=O)c1ccc(Nc2nn(C3COCCC[C@H]3C#N)c3cc[nH]c(=O)c23)cc1 (single isomer, unassigned) [Example 1-24, (3R,4R or 3S,4S)-3-(3-{[4-(tert-butylsulfonyl)phenyl]amino}-4-oxo-4,5-dihydro-1H-pyrazolo[4,3-c]pyridin-1-yl)oxepane-4-carbonitrile] | 12.4 | 14.7 | –
6 | CC1(C)CCCN1S(=O)(=O)c1ccc(Nc2nn([C@H]3COCC[C@@H]3C#N)c3cc[nH]c(=O)c23)cc1 [Example 1-72, (3R,4S)-3-[3-({4-[(2,2-dimethylpyrrolidin-1-yl)sulfonyl]phenyl}amino)-4-oxo-4,5-dihydro-1H-pyrazolo[4,3-c]pyridin-1-yl]tetrahydro-2H-pyran-4-carbonitrile] | 0.1 | – | 0.2
7 | CC1CCCN1C(c1ccc(Nc2nn([C@H]3COCC[C@@H]3C#N)c3cc[nH]c(=O)c23)cc1)C(F)(F)F (single isomer, unassigned) [Example 1-88, (3R,4S)-3-{4-oxo-3-[(4-{(1S or 1R)-2,2,2-trifluoro-1-[(2S or 2R)-2-methylpyrrolidin-1-yl]ethyl}phenyl)amino]-4,5-dihydro-1H-pyrazolo[4,3-c]pyridin-1-yl}tetrahydro-2H-pyran-4-carbonitrile] | 0.11 | 0.09 | –
8 | CC(C)NC1(C)C(=O)Nc2cc(Nc3nn(C4COCC[C@@H]4C#N)c4cc[nH]c(=O)c34)ccc21 (single isomer, unassigned) [Example 1-101, (3R,4S)-3-[3-({(3S or 3R)-3-methyl-3-[(1-methylethyl)amino]-2-oxo-2,3-dihydro-1H-indol-6-yl}amino)-4-oxo-4,5-dihydro-1H-pyrazolo[4,3-c]pyridin-1-yl] tetrahydro-2H-pyran-4-carbonitrile] | 0.07 | – | 0.05
9 | CN(C)C(c1ccc(Nc2nn([C@H]3COCC[C@@H]3C#N)c3cc[nH]c(=O)c23)cc1)C(F)(F)F (single isomer, unassigned) [Example 1-59, (3R,4S)-3-[3-({4-[(1S or 1R)-1-(dimethylamino)-2,2,2-trifluoroethyl]phenyl}amino)-4-oxo-4,5-dihydro-1H-pyrazolo[4,3-c]pyridin-1-yl]tetrahydro-2H-pyran-4-carbonitrile] | 0.05 | 0.08 | –
